Patent US4520022A, “Substituted vinyl cephalosporins” (priority 1983, dated 1985)
≈ marks a conversion by molar mass, not a printed value.

Test system: B. fragilis
Experiment: In vitro activity against anaerobes (MIC), B. fragilis
Format: cell-based
Settings: Bacteroides fragilis, B. fragilis A21900; β-lactamase (-); clindamycin resistant

## CC1=C(C(=O)O)N2C(=O)[C@@H](NC(=O)[C@H](N)c3ccccc3)[C@H]2SC1 [Cephalexin]
  MIC: 12.5 mg/L (≈ 36 µM)
